We go through 27 molecules from PubChem BioAssay AID192 (DTP/NCI, 2004).

Several values for one entry are separate records, joined by “and”; a condition that tells them apart may be missing. Identical values can stand only once. Inconclusive results and toxic doses are left out.

This assay deals with BDF1 mice, B16 melanoma ip, median survival T/C. Nature of the assay: NCI In Vivo Anticancer Drug Screen. Data for tumor model B16 Melanoma (intraperitoneal) in B6D2F1 (BDF1) mice. As to conditions: endpoint: median survival time, higher = longer survival. In a few lines: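 Each result divides a survival or tumor-size measurement in the compound-treated group by the same measurement in the vehicle group.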

[1] abbreviates: dose: 12.5 mg/kg/injection, schedule: Q01DX009 (ip), vehicle: Klucel (hydroxypropylcellulose) (HPC).
[2] abbreviates: dose: 25.0 mg/kg/injection, schedule: Q01DX009 (ip), vehicle: Klucel (hydroxypropylcellulose) (HPC).
[3] abbreviates: dose: 25.0 mg/kg/injection, schedule: Q01DX009 (ip), vehicle: saline with Tween-80.
The mark [4] stands for this setting: dose: 50.0 mg/kg/injection, schedule: Q01DX009 (ip), vehicle: saline with Tween-80.
[5] abbreviates: dose: 200.0 mg/kg/injection, schedule: Q01DX009 (ip), vehicle: saline with Tween-80.
Where [6] appears, read: dose: 50.0 mg/kg/injection, schedule: Q01DX009 (ip), vehicle: Klucel (hydroxypropylcellulose) (HPC).
Where [7] appears, read: dose: 100.0 mg/kg/injection, schedule: Q01DX009 (ip), vehicle: Klucel (hydroxypropylcellulose) (HPC).
[8] abbreviates: dose: 100.0 mg/kg/injection, schedule: Q01DX009 (ip), vehicle: saline with Tween-80.
Setting [9] is: dose: 200.0 mg/kg/injection, schedule: Q01DX009 (ip), vehicle: Klucel (hydroxypropylcellulose) (HPC).
[10] abbreviates: dose: 100.0 mg/kg/injection, schedule: Q04DX003 (ip), vehicle: Klucel (hydroxypropylcellulose) (HPC).
Where [11] appears, read: dose: 400.0 mg/kg/injection, schedule: Q01DX009 (ip), vehicle: Klucel (hydroxypropylcellulose) (HPC).

Regarding `Cc1cccc(C)c1N.[C-]#[O+].[C-]#[O+].[C-]#[O+].[Cr]`, the T/C is, setting by setting: (dose: 6.25 mg/kg/injection, schedule: Q01DX009 (ip), vehicle: Klucel (hydroxypropylcellulose) (HPC)) 103 % of control; under setting [1], 100 % of control; under setting [2], 100 % of control and 112 % of control.
As for `COc1ccc(S(=O)(=O)N=N/C=C2\C=CC=CN2O)cc1OC`, the T/C was 99 % of control (dose: 6.25 mg/kg/injection, schedule: Q01DX009 (ip), vehicle: saline with Tween-80); 100 % of control (dose: 12.5 mg/kg/injection, schedule: Q01DX009 (ip), vehicle: saline with Tween-80); 112 % of control under setting [3]; 112 % of control under setting [4]; 161 % of control under setting [5].
As for `N#CC(=C1C=CC(=NO)C=C1)c1ccccc1`, the T/C reads like this: under setting [1], 100 % of control; under setting [6], 112 % of control; under setting [7], 103 % of control.
Regarding `Cc1cc(O)ccc1[N+](=O)[O-]`, the T/C is 119 % of control (dose: 25.0 mg/kg/injection, schedule: Q01DX009 (ip), vehicle: saline); 123 % of control (dose: 50.0 mg/kg/injection, schedule: Q01DX009 (ip), vehicle: saline); 104 % of control (dose: 100.0 mg/kg/injection, schedule: Q01DX009 (ip), vehicle: saline).
Take `CCOC(=O)c1ccc(OC(=O)Nc2ccccc2)cc1`: the T/C is 97 % of control under setting [3]; 97 % of control under setting [4]; 93 % of control and 95 % of control under setting [8].
On to `CCOC(=O)C(=Cc1ccc(C=C(C(=O)OCC)C(=O)OCC)cc1)C(=O)OCC`, for which the T/C is 93 % of control under setting [6] and 93 % of control under setting [9].
As to `C1=Cc2ccccc2/C1=C/c1ccc(/C=C2\C=Cc3ccccc32)cc1`, the T/C under setting [10] was 98 % of control; the T/C (dose: 200.0 mg/kg/injection, schedule: Q04DX003 (ip), vehicle: Klucel (hydroxypropylcellulose) (HPC)) was 102 % of control; the T/C (dose: 400.0 mg/kg/injection, schedule: Q04DX003 (ip), vehicle: Klucel (hydroxypropylcellulose) (HPC)) is 92 % of control.
With `CCCCCCCCCCCCCC[n+]1ccccc1`, the T/C runs as follows: (dose: 0.06 mg/kg/injection, schedule: Q01DX009 (ip), vehicle: saline with Tween-80) 86 % of control and 89 % of control; (dose: 0.13 mg/kg/injection, schedule: Q01DX009 (ip), vehicle: saline with Tween-80) 90 % of control; (dose: 0.25 mg/kg/injection, schedule: Q01DX009 (ip), vehicle: saline with Tween-80) 86 % of control; (dose: 8.0 micrograms/kg/injection, schedule: Q01DX009 (ip), vehicle: saline) 88 % of control; (dose: 15.0 micrograms/kg/injection, schedule: Q01DX009 (ip), vehicle: saline) 91 % of control; (dose: 30.0 micrograms/kg/injection, schedule: Q01DX009 (ip), vehicle: saline) 94 % of control. Moreover, the T/C (dose: 60.0 micrograms/kg/injection, schedule: Q01DX009 (ip), vehicle: saline) was 88 % of control.
With `CC1=CC(O)C(O)C2(C)C1CC(=O)C13COC4OC(CC1C4=O)C(O)C32` (stereo not drawn), the T/C (dose: 0.4 mg/kg/injection, schedule: Q01DX009 (ip), vehicle: saline with Tween-80) is 106 % of control; the T/C (dose: 0.8 mg/kg/injection, schedule: Q01DX009 (ip), vehicle: saline with Tween-80) is 110 % of control; the T/C (dose: 1.6 mg/kg/injection, schedule: Q01DX009 (ip), vehicle: saline with Tween-80) was 113 % of control; the T/C (dose: 3.2 mg/kg/injection, schedule: Q01DX009 (ip), vehicle: saline with Tween-80) is 110 % of control; the T/C (dose: 5.0 mg/kg/injection, schedule: Q01DX009 (ip), vehicle: saline with Tween-80) is 90 % of control; the T/C (dose: 10.0 mg/kg/injection, schedule: Q01DX009 (ip), vehicle: saline with Tween-80) is 91 % of control.
On to `O=C1CNC(c2ccccc2)c2cc(Cl)ccc2N1` (stereo not drawn), for which the T/C under setting [1] was 107 % of control; the T/C under setting [2] is 97 % of control; the T/C under setting [6] is 107 % of control; the T/C under setting [7] was 94 % of control; the T/C under setting [9] is 102 % of control.
As for `CC(=O)O[C@H]1CC[C@H]2[C@@H]3CC[C@H]4CC=C(C#N)C[C@]4(C)[C@H]3CC[C@]12C`, the T/C is, setting by setting: under setting [1], 86 % of control; under setting [2], 94 % of control; under setting [6], 88 % of control.
As to `Nc1cccc2c1nc(NCCO)c1ccccc12`, the T/C is 94 % of control under setting [4]; 102 % of control under setting [8]; 94 % of control under setting [5]; 102 % of control (dose: 400.0 mg/kg/injection, schedule: Q01DX009 (ip), vehicle: saline with Tween-80).
For the molecule `CCOc1ccccc1NC(=O)Nc1ccccc1OC`, the T/C is, setting by setting: under setting [7], 86 % of control; under setting [9], 98 % of control; under setting [11], 89 % of control.
Consider `O=C(N/N=C/c1ccc(O)cc1O)c1cccnc1`, for which the T/C (dose: 25.0 mg/kg/injection, schedule: Q01DX009 (ip), vehicle: olive oil, sesame oil, peanut oil) was 86 % of control.
`CCOc1ccccc1NC(=O)Nc1cccc2ccccc12`: the T/C reads like this: under setting [7], 103 % of control; under setting [9], 100 % of control; under setting [11], 103 % of control.
As for `CC(CCC(=O)O)(c1cc(Cl)c(O)c(Cl)c1)c1cc(Cl)c(O)c(Cl)c1`, the T/C (dose: 25.0 mg/kg/injection, schedule: Q01DX009 (ip), vehicle: gum acacia) is 98 % of control; the T/C (dose: 50.0 mg/kg/injection, schedule: Q01DX009 (ip), vehicle: gum acacia) was 115 % of control; the T/C (dose: 100.0 mg/kg/injection, schedule: Q01DX009 (ip), vehicle: gum acacia) was 122 % of control.
On to `CCOC(=O)c1cnc(SC)nc1Nc1c(Br)cc(Br)cc1Br`, for which the T/C is, setting by setting: under setting [1], 106 % of control; under setting [2], 109 % of control; under setting [6], 106 % of control.
As to `CCCCN(C)N=Nc1ccc(CCCC(=O)OCC)cc1`, the T/C (dose: 1.56 mg/kg/injection, schedule: Q01DX009 (ip), vehicle: saline) was 97 % of control; the T/C (dose: 3.13 mg/kg/injection, schedule: Q01DX009 (ip), vehicle: saline) is 100 % of control; the T/C (dose: 6.25 mg/kg/injection, schedule: Q01DX009 (ip), vehicle: saline) was 100 % of control.
Consider `COc1cc2c(c(O)c1OC)-c1c(cc(OC)c(OC)c1OC)CC(C)C(C)C2` (stereo not drawn), for which the T/C by setting is: (dose: 11.25 mg/kg/injection, schedule: Q01DX009 (ip), vehicle: saline + Tween-80 + alcohol) 101 % of control; (dose: 22.5 mg/kg/injection, schedule: Q01DX009 (ip), vehicle: saline + Tween-80 + alcohol) 105 % of control; (dose: 45.0 mg/kg/injection, schedule: Q01DX009 (ip), vehicle: saline + Tween-80 + alcohol) 97 % of control; (dose: 90.0 mg/kg/injection, schedule: Q01DX009 (ip), vehicle: saline + Tween-80 + alcohol) 106 % of control.
Take `c1ccc2c(CNC3CCCCC3)c[nH]c2c1`: the T/C by setting is: under setting [2], 89 % of control; under setting [6], 97 % of control; under setting [10], 92 % of control.
Consider `O=C(OC1C(O)OC2COC(=O)c3cc(O)c(O)c(O)c3-c3c(cc(O)c(O)c3O)C(=O)OC2C1O)c1cc(O)c(O)c(O)c1` (stereo not drawn), for which the T/C was 99 % of control (dose: 3.75 mg/kg/injection, schedule: Q01DX009 (ip), vehicle: saline) and 112 % of control (dose: 7.5 mg/kg/injection, schedule: Q01DX009 (ip), vehicle: saline).
As to `C[P+](C)(Cc1ccc([N+](=O)[O-])cc1)c1ccccc1`, the T/C under setting [2] was 98 % of control and the T/C under setting [6] is 100 % of control.
In the case of `O=C(Nc1ccc(C(=O)Nc2cc(S(=O)(=O)O)cc3cccc(S(=O)(=O)O)c23)cc1)Nc1ccc(C(=O)Nc2cc(S(=O)(=O)O)cc3cccc(S(=O)(=O)O)c23)cc1`, the T/C under setting [6] was 108 % of control, the T/C under setting [7] was 113 % of control and the T/C under setting [9] was 100 % of control.
In the case of `CCOC(=O)c1ccc(OC(=O)Nc2ccccc2OC)cc1`, the T/C is, setting by setting: under setting [8], 95 % of control; under setting [5], 88 % of control.
For `NC(=S)N/N=C/c1ccc(C(F)(F)F)cn1`, the T/C is, setting by setting: (dose: 8.8 mg/kg/injection, schedule: Q01DX009 (ip), vehicle: Klucel (hydroxypropylcellulose) (HPC)) 106 % of control; (dose: 13.3 mg/kg/injection, schedule: Q01DX009 (ip), vehicle: Klucel (hydroxypropylcellulose) (HPC)) 108 % of control; (dose: 20.0 mg/kg/injection, schedule: Q01DX009 (ip), vehicle: Klucel (hydroxypropylcellulose) (HPC)) 109 % of control.
As for `C/C=C(/C)N(C(C)=O)N(C(C)=O)c1ccc([N+](=O)[O-])cc1[N+](=O)[O-]`, the T/C is, setting by setting: under setting [7], 100 % of control; under setting [9], 89 % of control; under setting [11], 89 % of control.
On to `CCOc1ccc(NC(=O)c2cccc(C(=O)Nc3ccc(OCC)cc3)c2)cc1`, for which the T/C under setting [7] is 103 % of control, the T/C under setting [9] is 93 % of control and the T/C under setting [11] was 86 % of control.
